Assay results reported in patent publication US20240207240A1, “Method for Improving or Treating Cognitive Dysfunction Complicating HIV-associated Cryptococcal Meningitis with Lenalidomide” (The First Affiliated Hospital Zhejiang University School of …, priority 2022, published 2024).
Values joined by “and” are separate entries in the source; they are usually repeats but may differ in a detail not shown here. Equal values may be shown once. Read-outs that look alike come from different tables or passages of the source.

What was measured:
[1] = in vivo; cited from earlier work
[2] = system: intracranial inflammation (CSF WBC, protein, albumin, IgG, glucose, chlorine, pressure); assay: CSF routine and biochemistry analysis; assay type: in vivo, human; details: for Chlorine-W 24 / Protein-W 24 / WBC-W 24 / Glucose-W23 / Δ Protein / ΔChlorine / ΔGlucose / ΔWBC: CSF; for Glucose-W23: after treatment; for Δ Protein / ΔChlorine / ΔGlucose / ΔWBC / ΔICP: week 24 - week 0, median
[3] = system: TNF-α; details: cited from earlier work
[4] = system: CSF cytokines; assay: Detection of inflammatory cytokines in CSF (Human Cytokine/Chemokine/Growth Factor Panel A); assay type: in vivo; details: for CSF Apo. E / CSF CFH / CSF Complement C3 / CSF FGF-2 / CSF G-CSF / CSF GM-CSF / CSF GRO / CSF IFN-γ / CSF IL-1α / CSF IL-1β / CSF IL-2 / CSF IL-3 / CSF IL-4 / CSF IL-6 / CSF IL-8 / CSF IL-10 / CSF IL-12p40 / CSF IL-12p70 / CSF IL-13 / CSF IL-17α / CSF IP-10 / CSF MCP-1 / CSF MIP-1α / CSF MIP-1β / CSF PDGF-AA / CSF TNF-α / CSF apoA-I / CSF pTau 181 / CSF sCD40L / CSF tTau / CSF α-2-M / CSF αβ42: W 24, after 6 cycles lenalidomide
Experimental: Detection of inflammatory cytokines in CSF: CSF samples were collected from the participants and centrifuged immediately; and the supernatant was stored at −80° C. until testing. 32 CSF cytokines were analyzed using the Human Cytokine/Chemokine/Growth Factor Panel A (Merck Millipore, St. Louis, USA): α-2-macroglobulin (α-2-M), apolipoprotein A-I (apoA-I), Apo-E, complement C3, complement factor H (CFH), fibroblast growth factor 2 (FGF-2), granulocyte-colony stimulating factor (G-CSF), granulocyte-macrophage colony-stimulating factor (GM-CSF), interferon-γ (IFN-γ), growth-regulated oncogene (GRO), soluble CD40 ligand (sCD40L), platelet-derived growth factor-AA (PDGF-AA), interleukin (IL)-12p40, IL-12p70, IL-13, IL-1α, IL-1β, IL-2, IL-3, IL-4, IL-6, IL-8, IL-10, IL-17α, monocyte chemoattractant protein-1 (MCP-1), macrophage inflammatory protein-la (MIP-la), MIP-1β, tumor necrosis factor-a (TNF-α), IL-17α, amyloid-β (1-42) (αβ42), total Tau (tTau) and phosphorylated Tau 181 (pTau181), The abbreviations of CSF cytokines are provided in Table 3.

[5] = system: patients with cognitive dysfunction caused by HIV-associated CM-IRIS; assay type: in vivo, human; details: for ΔIHDS: week 24 - week 0, median
[6] = system: patients with cognitive dysfunction caused by HIV-associated CM-IRIS; assay: Center for Epidemiological Research Depression Scale (CES-D); assay type: in vivo, human; details: before vs after lenalidomide treatment
[7] = individual Patients 1-4 (cognitive improvement group)
[8] = individual Patients 5-7 (cognitive non-improvement group)
[9] = individual patients P1-P4 (cognitive improvement group)
[10] = individual patients P5-P7 (cognitive non-improvement group)

Nc1cccc2c1CN(C1CCC(=O)NC1=O)C2=O (stereo not shown) [lenalidomide]
side effects [1]: milder than those of thalidomide
change in CSF WBC after lenalidomide treatment ([2]; CI group, P=0.032): significant decline
change in CSF albumin after lenalidomide treatment ([2]; CI group, P=0.034): significant decline
change in CSF protein after lenalidomide treatment ([2]; CI group, P=0.034): significant decline
change in CSF IgG levels after lenalidomide treatment ([2]; CI group, P=0.050): significant decline
Chlorine-W 24 [2, 7]: 128 mmol/L (2×) and 131 mmol/L and 121 mmol/L
Protein-W 24 [2, 7]: 1.081 g/L and 1.24 g/L and 0.745 g/L and 0.788 g/L
WBC-W 24 [2, 7]: 2 ×106/L (2×) and 10 ×106/L and 0 ×106/L
Chlorine-W 24 [2, 8]: 123 mmol/L (2×) and 127 mmol/L
Protein-W 24 [2, 8]: 0.37 g/L and 0.908 g/L and 1.15 g/L
WBC-W 24 [2, 8]: 1e+06 L⁻¹ and 1e+07 L⁻¹ and 7e+06 L⁻¹
Glucose-W23 [2, 7]: 2.4 mmol/L and 2.5 mmol/L and 3.6 mmol/L and 2.6 mmol/L
Glucose-W23 [2, 8]: 4.7 mmol/L and 2.4 mmol/L and 2.8 mmol/L
Δ Protein ([2]; CI group): -4.4 g/L
ΔChlorine ([2]; CI group): 2.0 mmol/L
ΔGlucose ([2]; CI group): 0.4 mmol/L
ΔWBC ([2]; CI group): -1.18e+08 L⁻¹
Δ Protein ([2]; CNI group): 0.3 g/L
ΔChlorine ([2]; CNI group): -4.0 mmol/L
ΔGlucose ([2]; CNI group): -0.3 mmol/L
ΔWBC ([2]; CNI group): 7e+06 L⁻¹
ICP-W 24 [2, 7]: 120 mmH2O and 152 mmH2O and 150 mmH2O and 85 mmH2O
ICP-W 24 [2, 8]: 200 mmH2O and 120 mmH2O and 95 mmH2O
ΔICP ([2]; CI group): 10.0 mmH2O
ΔICP ([2]; CNI group): −20.0 mmH2O
inhibitory effect on TNF-α relative to thalidomide [3]: 2000 times
change in CSF G-CSF level after treatment ([4]; CI group, P<0.001): significant decline
change in CSF GRO level after treatment ([4]; CI group, P<0.001): significant decline
change in CSF IL-6 level after treatment ([4]; CI group, P<0.001): significant decline
change in CSF IL-8 level after treatment ([4]; CI group, P<0.001): significant decline
change in CSF IL-10 level after treatment ([4]; CI group, P<0.001): significant decline
change in CSF CFH level after treatment ([4]; CI group, P=0.002): significant decline
change in CSF TNF-α level after treatment ([4]; CI group, P=0.002): significant decline
change in CSF α-2-M level after treatment ([4]; CI group, P=0.003): significant decline
change in CSF tTau level after treatment ([4]; CNI group, P=0.030): increased significantly
CSF Apo. E [4, 9]: 5683 pg/mL and 1764 pg/mL and 2487 pg/mL and 1873 pg/mL
CSF CFH [4, 9]: 4617 pg/mL and 2381 pg/mL and 2275 pg/mL and 1603 pg/mL
CSF Complement C3 [4, 9]: 10475 pg/mL and 4010 pg/mL and 818.22 pg/mL and 1909 pg/mL
CSF FGF-2 [4, 9]: 16.08 pg/mL
CSF G-CSF [4, 9]: 22.02 pg/mL and 3.57 pg/mL (2×) and 5.99 pg/mL
CSF GM-CSF [4, 9]: 0.98 pg/mL and 1.02 pg/mL and 1.94 pg/mL and 2.81 pg/mL
CSF GRO [4, 9]: 111.65 pg/mL and 63.2 pg/mL and 32 pg/mL and 149.74 pg/mL
CSF IFN-γ [4, 9]: 1.31 pg/mL and 0.7 pg/mL and 0.66 pg/mL and 1.6 pg/mL
CSF IL-1α [4, 9]: 1.91 pg/mL and 1.71 pg/mL and 1.65 pg/mL and 1.37 pg/mL
CSF IL-1β [4, 9]: 1.15 pg/mL and 1.09 pg/mL and 0.88 pg/mL and 1.11 pg/mL
CSF IL-2 [4, 9]: 0.72 pg/mL and 0.69 pg/mL and 0.64 pg/mL and 0.81 pg/mL
CSF IL-3 [4, 9]: 0.41 pg/mL and 0.44 pg/mL and 0.43 pg/mL and 0.34 pg/mL
CSF IL-4 [4, 9]: 1.49 pg/mL and 2.22 pg/mL and 0.82 pg/mL (2×)
CSF IL-6 [4, 9]: 12.8 pg/mL and 63.58 pg/mL and 2.85 pg/mL (2×)
CSF IL-8 [4, 9]: 175.42 pg/mL and 164.92 pg/mL and 64.25 pg/mL and 118.93 pg/mL
CSF IL-10 [4, 9]: 4.21 pg/mL and 4.14 pg/mL and 2.45 pg/mL and 4.07 pg/mL
CSF IL-12p40 [4, 9]: 1.78 pg/mL and 0.38 pg/mL and 0.92 pg/mL and 10.92 pg/mL
CSF IL-12p70 [4, 9]: 2.46 pg/mL and 0.67 pg/mL and 2.09 pg/mL and 1.34 pg/mL
CSF IL-13 [4, 9]: 1.19 pg/mL and 0.8 pg/mL and 0.71 pg/mL and 1.09 pg/mL
CSF IL-17α [4, 9]: 0.62 pg/mL
CSF IP-10 [4, 9]: 12150 pg/mL and 4404 pg/mL and 3063 pg/mL and 12231 pg/mL
CSF MCP-1 [4, 9]: 1624 pg/mL and 2268 pg/mL and 987.31 pg/mL and 923.8 pg/mL
CSF MIP-1α [4, 9]: 4.61 pg/mL and 18.47 pg/mL and 3.38 pg/mL (2×)
CSF MIP-1β [4, 9]: 23.79 pg/mL and 31.7 pg/mL and 9.58 pg/mL and 5.86 pg/mL
CSF PDGF-AA [4, 9]: 5.66 pg/mL and 6.92 pg/mL and 2.78 pg/mL (2×)
CSF TNF-α [4, 9]: 7.46 pg/mL and 6.82 pg/mL and 2.46 pg/mL and 8.22 pg/mL
CSF apoA-I [4, 9]: 6850 pg/mL and 683.32 pg/mL and 668.25 pg/mL and 788.79 pg/mL
CSF pTau 181 [4, 9]: 61.43 pg/mL and 38.37 pg/mL and 42.96 pg/mL and 19.12 pg/mL
CSF sCD40L [4, 9]: 2.49 pg/mL (3×) and 4.91 pg/mL
CSF tTau [4, 9]: 1594 pg/mL and 431.47 pg/mL and 752.55 pg/mL and 234.58 pg/mL
CSF α-2-M [4, 9]: 10777 pg/mL and 4765 pg/mL and 3814 pg/mL and 2942 pg/mL
CSF αβ42 [4, 9]: 2364 pg/mL and 708.02 pg/mL and 1573 pg/mL and 693.92 pg/mL
CSF Apo. E [4, 10]: 5462 pg/mL and 2829 pg/mL and 2633 pg/mL
CSF CFH [4, 10]: 3699 pg/mL and 1253 pg/mL and 2446 pg/mL
CSF Complement C3 [4, 10]: 4249 pg/mL and 2914 pg/mL and 1335 pg/mL
CSF FGF-2 [4, 10]: 13.73 pg/mL and 48.91 pg/mL
CSF G-CSF [4, 10]: 2.84 pg/mL
CSF GM-CSF [4, 10]: 2.58 pg/mL and 1.29 pg/mL (2×)
CSF GRO [4, 10]: 117.5 pg/mL and 44.05 pg/mL and 73.45 pg/mL
CSF IFN-γ [4, 10]: 1.67 pg/mL and 1.01 pg/mL and 0.66 pg/mL
CSF IL-1α [4, 10]: 3.37 pg/mL and 1.95 pg/mL and 1.42 pg/mL
CSF IL-1β [4, 10]: 2.16 pg/mL and 1.03 pg/mL and 1.13 pg/mL
CSF IL-2 [4, 10]: 1.44 pg/mL and 0.7 pg/mL and 0.74 pg/mL
CSF IL-3 [4, 10]: 0.82 pg/mL and 0.52 pg/mL and 0.3 pg/mL
CSF IL-4 [4, 10]: 2.71 pg/mL and 2.22 pg/mL and 0.49 pg/mL
CSF IL-6 [4, 10]: 2.85 pg/mL
CSF IL-8 [4, 10]: 234.05 pg/mL and 62.23 pg/mL and 171.82 pg/mL
CSF IL-10 [4, 10]: 2.45 pg/mL and 3.7 pg/mL
CSF IL-12p40 [4, 10]: 1.65 pg/mL and 1.13 pg/mL and 0.52 pg/mL
CSF IL-12p70 [4, 10]: 2.69 pg/mL and 1.25 pg/mL and 1.44 pg/mL
CSF IL-13 [4, 10]: 1.91 pg/mL and 0.99 pg/mL and 0.92 pg/mL
CSF IL-17α [4, 10]: 1.13 pg/mL and 0.62 pg/mL
CSF IP-10 [4, 10]: 13221 pg/mL and 3398 pg/mL and 9823 pg/mL
CSF MCP-1 [4, 10]: 3992.12 pg/mL and 981.12 pg/mL and 3011 pg/mL
CSF MIP-1α [4, 10]: 3.38 pg/mL and 5 pg/mL
CSF MIP-1β [4, 10]: 31.83 pg/mL and 13.92 pg/mL and 17.91 pg/mL
CSF PDGF-AA [4, 10]: 6.89 pg/mL and 2.9 pg/mL and 3.99 pg/mL
CSF TNF-α [4, 10]: 8.22 pg/mL and 3.01 pg/mL and 5.21 pg/mL
CSF apoA-I [4, 10]: 2047.9 pg/mL and 833.9 pg/mL and 1214 pg/mL
CSF pTau 181 [4, 10]: 85.14 pg/mL and 48.8 pg/mL and 36.34 pg/mL
CSF sCD40L [4, 10]: 2.49 pg/mL
CSF tTau [4, 10]: 1309.82 pg/mL and 681.32 pg/mL and 628.5 pg/mL
CSF α-2-M [4, 10]: 7109 pg/mL and 2778 pg/mL and 4331 pg/mL
CSF αβ42 [4, 10]: 2453 pg/mL and 1168 pg/mL and 1285 pg/mL
median IHDS score ([5]; W24, after 6 cycles lenalidomide, 7 patients, baseline 9.0 (2.5-10.5), P=0.028): 11.0 (10.0-12.0)
recall of the four items in the IHDS ([5]; W24, baseline 1.5 (1.0-3.5), P=0.042): 4.0 (2.0-4.0)
IHDS-W 24 [5, 7]: 10 scores (2×) and 11 scores and 12 scores
IHDS-W 24 [5, 8]: 12 scores (2×) and 10 scores
ΔIHDS ([5]; CI group): 5.25 scores
ΔIHDS ([5]; CNI group): 1.5 scores
CES-D score for anxiety or depression, before to after treatment [6]: no significant difference
